Where a name gives a salt, the structure may show the parent alone. Square brackets hold non-standard residues; d marks the D form. Peptide text beside a SMILES is read from it. Hpg = N[C@H](C(=O)O)c1ccc(O)cc1

In experiment [1] the test system is pyruvate dehydrogenase enzyme. Briefly: Increase in proportion of active form of pyruvate dehydrogenase (PDHa/PDHt) in hearts of fat-fed rats in vivo. To be noted: 0.6 mg./kg. oral or sub-cutaneous; rat hearts removed after 11/2 hours; L-compounds; placebo ratio 0.12-0.21. On the procedure: The ability of compounds of formula (II) to increase the proportion of the active form of the pyruvate dehydrogenase enzyme has been measured in the following test: Rats fed on a high fat diet as in the previous test, are treated either with placebo or with the compound of formula (II) by subcutaneous or intravenous injection or by oral administration. After 11/2 hours the rat hearts are removed and homogenized under conditions which minimize changes in the proportion of the pyruvate dehydrogenase enzyme […] which is present in the active form, as described by Whitehouse and Randle [Biochem. J., 134, 651 (1973)]. The total amount of the enzyme present (PDHt) and the amount which is present in the active form (PDHa) are assessed by a method similar to that described by Taylor et al. [J. Biol. Chem., 248, 73 (1973)]. The fat-feeding process is found to depress the ratio […] from a normal value of about 0.7 to a value in the range from 0.05 to 0.2. Treatment of fat-fed rats with L- and DL-compounds of formula (II) either parenterally or orally, increases this ratio in a dose-dependent manner. The increase in the […] ratio affected by the L-compounds of formula (II) at a dosage level of 0.6 mg./kg. via the oral or sub-cutaneous route is shown in the following Table: […]

Experiment [2] concerns pyruvate oxidation by diaphragm tissue from fat-fed rats. Briefly: Stimulation of pyruvate oxidation by diaphragm tissue from fat-fed rats in vitro. The experiment is classed as cell-based. The note with it: Rattus norvegicus, concentration of 0.5 mmoles, L-compounds. On the procedure:
Representative compounds of the formula (II) have been tested for their ability to increase the oxidation of glucose and/or pyruvate as follows: Diaphragm tissue is obtained from rats fed on a high fat diet similar to `Diet B` described by Zaragoza and Felber [Horm. Metab. Res., 2, 323 (1970)]. Pyruvate oxidation by such tissue is assessed by measurement of the rate of incorporation of carbon-14 from carbon-14-labelled pyruvate into carbon dioxide in vitro, as described by Bringolf [Eur. J. Biochem., 26, 360 (1972)]. The rate of pyruvate oxidation is depressed by 50%-75% compared with that by diaphragm tissue from rats fed on a normal diet. When the L- and DL-compounds of the formula (II) are added to the medium, they are found to stimulate pyruvate oxidation by diaphragm tissue from fat-fed rats in a dose dependent manner.

Consider `N[C@H](C(=O)NCC(=O)O)c1ccc(O)cc1` [Example 17, N-[(L)-2-(4-hydroxyphenyl)glycyl]-glycine hydrochloride dioxanate] (H-[Hpg]-Gly-OH), for which the “PDHa/PDHt ratio, compound” value in experiment [1] came out at 0.31. For the same compound, in experiment [2], the activation at 500 µM was 41%.
In the same order, the values of `Cl.N[C@H](C(=O)N[C@@H](Cc1ccc(O)cc1)C(=O)O)c1ccc(O)cc1` [Example 16, N-[(L)-2-(4-Hydroxyphenyl)glycyl]-(L)-tyrosine hydrochloride] (H-[Hpg]-Tyr-OH) are 0.31 and 67%.
With `C#CCNC(=O)[C@@H](N)c1ccc(O)cc1` [Example 4, L-N-propargyl-2-amino-2-(4-hydroxyphenyl)acetamide], the “PDHa/PDHt ratio, compound” value in experiment [1] turned out to be 0.73. Moreover, the activation at 500 µM in experiment [2] amounted to 82%.
Taken in the same sequence, the figures for `CCN(CC)CCNC(=O)[C@@H](N)c1ccc(O)cc1` [Example 6, L-N-(2-diethylamino)ethyl-2-amino-2-(4-hydroxyphenyl)acetamide] were 0.78 and 38%.
In the same order, the values of `N[C@H](C(=O)NC1CCCC1)c1ccc(O)cc1` [Example 5, L-N-cyclopentyl-2-amino-2-(4-hydroxyphenyl)acetamide] are 0.88 and 23%.
In the same order, the values of `CC(C)(C)NC(=O)[C@@H](N)c1ccc(O)cc1` [Example 3] are 0.56 and 15%.
Take `COc1ccccc1OCC(O)CNC(=O)[C@@H](N)c1ccc(O)cc1` (stereo partly shown) [Example 15]: the “PDHa/PDHt ratio, compound” value in experiment [1] is given as 0.25. In experiment [2], this compound returned an activation at 500 µM of 55%.
As for `CNC(=O)[C@@H](N)c1ccc(O)cc1.Cl` [Example 13, (L)-N-methyl-2-Amino-2-(4-hydroxyphenyl)acetamide hydrochloride], the “PDHa/PDHt ratio, compound” value in experiment [1] amounted to 0.55. Moreover, in experiment [2], the activation at 500 µM amounted to 45%.
For the compound `Cl.N[C@H](C(=O)NCc1ccc(O)cc1)c1ccc(O)cc1` [Example 1, (L)-N-(4-Hydroxybenzyl)-2-amino-2-(4-Hydroxyphenyl)acetamide hydrochloride], the “PDHa/PDHt ratio, compound” value in experiment [1] was determined as 1.00. Further, in experiment [2], the activation at 500 µM worked out at 72%.
Consider `CC(C)NC(=O)[C@@H](N)c1ccc(O)cc1` [Example 2, L-N-isopropyl-2-amino-2-(4-hydroxyphenyl)acetamide], for which the “PDHa/PDHt ratio, compound” value in experiment [1] turned out to be 0.65. In addition, the activation at 500 µM in experiment [2] turned out to be 108%.
In the same order, the values of `COCCNC(=O)[C@@H](N)c1ccc(O)cc1` [Example 14, L-N-(2-methoxyethyl)-2-amino-2-(4-hydroxyphenyl)acetamide] are 0.88 and 76%.

The values are drawn from patent US4218474A, “Derivatives of L- and DL-4-hydroxyphenylglycine” (Pfizer Inc., priority 1977, dated 1980).
